Test results taken from patent US11766469B2, “Q-peptide hydrogel promotes immune modulation and macrophage differentiation” (Quthero, Inc., priority 2019, dated 2023).

Assays:
[1] = test system: bone marrow derived macrophages (BMDMs); experiment: ELISA of cytokines released by BMDMs into culture media; type: cell-based, C57BL/6 mice; conditions: 24 hours of culture
Protocol: (§1) Murine bone marrow derived macrophages (BMDM) were isolated from 8-12 week-old C57BL/6 mice (Charles River) according to a protocol approved by the University of Toronto Animal Care Committee. The mice were euthanized, and the femur and tibias were removed and placed in complete RPMI 1640+L-glutamine media (Gibco, 10% heat inactivated Fetal Bovine Serum, FBS, 1% Pen/Strep). The bones were separated and sterilized in 70% ethanol for 10 minutes. The heads of the bones were cut off, and the marrow was flushed out with a 23 G needle containing fresh complete RPMI 1640 media. The remaining cell culture media and bone marrow was homogenized by gentle pipetting. The cells were spun down and resuspended in ACK Lysing Buffer (Gibco) for 1 min to lyse remaining red blood cells. The lysing buffer was diluted with PBS, and the cell suspension was re-spun, and counted. Cells were seeded at 3 million cells/well in non-adherent 6-well culture plates containing 2 mL of complete RPMI 1640 media with 20 ng/mL of Macrophage Colony Stimulating Factor (M-CSF, Miltenyi Biotec). Half (50%) of the media was changed on day 3, and 5. On day 7, adherent cells were used as macrophages for experiments. Macrophage purity, as identified by F4/80+, CD11b+ positive staining, under all culture stimulations is >90%, consistent with previous studies (FIG. 6B).
Adherent macrophages were detached by incubating with 0.25% trypsin-EDTA for 10 minutes. Cells were polarized in response to the following treatment conditions: blank-included cultivation on tissue culture plastics; soluble Q-Peptide (650 μM) applied to macrophages cultivated on tissue culture plastics; and macrophages cultivated on the following hydrogel films: no peptide collagen-chitosan (empty) film, scrambled Q-Peptide film, and Q-Peptide film. BMDMs were polarized with lipopolysaccharide (LPS; 100 ng/mL) for pro-inflammatory, M(LPS), and IL-4 ([…]) for anti-inflammatory, M(IL-4) positive polarization controls. Cells were seeded directly onto a non-adherent 6-well plate for the blank and soluble Q-Peptide conditions, and onto solvent cast films for the empty film, scrambled Q-Peptide film, and Q-Peptide film at a concentration of 100,000 cells/cm^2. After 24 hours of culture, cell culture media was collected for ELISA analysis by Eve Technologies (Calgary, AB), and the concentrations of INF-γ, IL-1β, IL-2, IL-4, IL-6, IL-10, IL-12 p′70, GM-CSF, MCP-1, TNF-α, TGF-β31, TGF-β2, and TGF-β3 were measured.

[2] = test system: rat myocardial infarction model; conditions: cited from earlier work
[3] = test system: bone marrow derived macrophages (BMDMs); experiment: BMDM culture on hydrogel films: cell attachment, total cell count, viability (Zombie Violet); type: cell-based, C57BL/6 mice; conditions: after 24 hours of culture
Protocol: as §1, with “Cells were seeded at 3 million cells/well in non-adherent 6-well culture plates containing 2 mL of complete RPMI 1640 media with 20 ng/mL of Macrophage Colony Stimulating Factor (M-CSF, Miltenyi Biotec). Half (50%) of the media was changed on day 3, and 5. On day 7, adherent cells were used as macrophages for experiments. Macrophage purity, as identified by F4/80+, CD11b+ positive staining, under all culture stimulations is >90%, consistent with previous studies (FIG. 6B).” left out
Adherent macrophages were detached by incubating with 0.25% trypsin-EDTA for 10 minutes. […] After 24 hours of culture, cell culture media was collected for ELISA analysis by Eve Technologies (Calgary, AB), and the concentrations of INF-γ, IL-1β, IL-2, IL-4, IL-6, IL-10, IL-12 p′70, GM-CSF, MCP-1, TNF-α, TGF-β31, TGF-β2, and TGF-β3 were measured. […]

wounds = wounds treated; cited from earlier work
[4] = compared to blank, soluble Q-Peptide and empty film (LPS: vs Q-Peptide film)

QHREDGS (SEQ ID NO: 1) with biotin-Ahx N-terminal modification [soluble Q-Peptide]
BMDM cytokine release / cytokine concentration (overall) [1]: only had an effect on BMDM cytokine release when immobilized to a hydrogel | effectiveness in myocardial infarction model [2]: effective | final cell count (cells in solution and attached) [3]: did not affect the final cell count | cell attachment (number of adhered cells/mm2) ([3]; compared with blank culture conditions): decrease in cell attachment

lipopolysaccharide [LPS]
concentration of IL-6 [1, 4]: an order of magnitude greater | concentration of MCP-1 [1, 4]: an order of magnitude greater | concentration of IL-10 ([1]; relative to the other culture conditions (LPS: vs Q-Peptide film)): an order of magnitude greater

B1: recombinant human TGF-β3: recombinant human TGF-β3 used to treat wounds in a clinical trial (protein, UniProt P10600 301-412, looked up)
Transforming growth factor …: ALDTNYCFRNLEENCCVRPLYIDFRQDLGWKWVHEPKGYYANFCSGPCPYLRSADTTHSTVLGLYNTLNPEASASPCCVPQDLEPLTILYYVGRTPKVEQLSNMVVKSCKCS
primary and secondary outcomes of a Phase III trial (wounds): failed to reach primary and secondary outcomes
